Laboratory results: US20030170221A1, “STREPTOMYCES MEGASPORUS SD5, PROCESS FOR THE ISOLATION THEREOF, NOVEL FIBRINOLYTIC ENZYME PREPARED THEREFROM, PROCESS FOR THE PRODUCTION OF SAID ENZYME AND METHOD OF TREATMENT OF THROMBOLYTIC DISORDERS USING SAID ENZYME” (MAHARASHTRA ASSOC. FOR THE CULTIVATION OF SCIENCE, priority 2001, published 2003)
Read-outs that look alike come from different tables or passages of the source. Square brackets hold non-standard residues; d marks the D form. Peptide text beside a SMILES is read from it. * marks the point of attachment. Sta = CC(C)C[C@H](N)[C@@H](O)CC(=O)O; Isovaleryl = CC(C)CC(=O)*

What was measured:
[1] = tested on: actinokinase, fibrinolytic enzyme from Streptomyces megasporus SD5, 35 kDa serine protease, wild type; test: Michaelis constant with Chromozyme U as substrate, Lineweaver-Burk plot; format: biochemical; conditions: in absence of plasminogen
Procedure: The thrombolytic activity was measured on standard fibrin plate using the method of Haverkate-Trass (1974) as mentioned previously and compared with available thrombolytic enzyme, urokinase, Each sample (20 μl) was put on the fibrin clot layer and incubated at both 55° C. and 37° C. for 8 h. The zone of clear areas for standard urokinase and the enzyme of the invention was measured and thrombolytic activities of both enzymes were expressed in terms of Plough units. Amidolytic activity was determined using chromogenic substrates and one unit of activity is defined as the amount of enzyme, which released […] of pNA min^−1. Amydolytic activity in liquid medium was determined using the method by Lottenberg et al (1981). Caseinolytic activity was assayed by the procedure described by Pokorny et al (1979). Protein concentration was estimated by a modification of the Lowry's method (1951).
Substrate specificity of the enzyme was assessed at 405 nm by using various synthetic peptide substrates, (20 μM) tagged with ρ-nitranilide acetate and resorufin, in the reaction mixture. The Michaelis constant (Km) was determined using Chromozyme U as substrate using line weaver Burk plot method (Jayaraman 1985).

[2] = tested on: fibrinolytic enzyme produced by S. megasporus SD5; test: Effect of protease inhibitors on fibrinolytic activity of the crude enzyme (FIG. 5); format: biochemical, Streptomyces megasporus SD5
Text: (§1) 1.Control, 2—Antipain—3, Bestatin, —4, Chymostatin, —5. E-64, 6—Leupeptin, 7—Pepstatin, 8 Phosphoramidon, 9—pefabloc, 10—EDTA, 11—EDTA+Ca^++, 12—Aprotinin, 13—Trypsin inhibitor, 14—β-mercaptoethanol, 15—TPCK, 16—1, 10 pheuanthroline, 17—PMSF.
To determine the class to which the enzyme belonged the effect of different protease inhibitors were studied in detail.

[3] = tested on: fibrinolytic enzyme (actinokinase) produced by Streptomyces megasporus SD5, ~35 kDa, wild type; test: Effects of various inhibitors on fibrinolytic activity of the enzyme (FIG. 5); format: biochemical; conditions: result in words
Procedure: as §1
The fibrinolytic (thrombolytic) activity was assayed on solid and liquid media (Harverkate & Trass 1974, Lottenberg et al. 1981). The reaction mixture (1 ml) comprised of chromogenic substrates, such as benzoyl-β-alanyl-glycyl-arginine-ρ nitroanilide (20 μmol 1^−1) in 10 mM sodium phosphate buffer, pH 8.0 and incubated at 55° C. for 30 min after addition of 1 ml, enzyme solution containing 0.5 μg protein ml^−1, cooled to room temperature and the liberation of ρ-nitroanilide was measured by increased absorbance recorded at 405 nm using a UV-VIS Spectrophotometer (DU 8B, Beckman, Sweden). One unit of the enzyme was defined as the amount of enzyme that catalysed the formation of 1 ng of ρ-nitroanilide min^−1. The caseinolytic activity was determined by Dunn (1989) in terms of μmol tyrosine min^−1. Protein was determined using Folin Ciocalteau phenol reagent. All the results of growth and assays are the means of three separate experiments.
To determine the class to which the enzyme belonged the effect of different protease inhibitors were studied in detail. As the fibrinolytic enzyme could be used as a therapeutic agent for different types of thrombosis so in vitro clot lysis was studied with both natural and synthetic clots.

actinokinase = test: Effects of inhibitors and metal ions on activity of the purified enzyme; format: biochemical, Streptomyces megasporus SD5
Procedure: (§2) Different protease inhibitors were separately dissolved in distilled water/methanol/dimethyl sulphoxide as per manufacturers protocol, so that final concentration of each inhibitor was 1 mM. The enzyme (50 μl) was mixed with same amount (50 μl) of inhibitor and incubate at ambient temperature for 30 min. The residual activity was measured at 55° C. as above using universal protease substrate and compared with that of the control without any inhibitor and the inhibition was determined as percentage taking control as 100% positive.

[4] = tested on: actinokinase, fibrinolytic enzyme from Streptomyces megasporus SD5, 35 kDa serine protease, wild type; conditions: 1 mM inhibitor, ambient temperature 30 min; residual activity at 55° C., universal protease substrate
Procedure: as §2

[5] = tested on: Streptomyces megasporus SD5; test: Antibiotic sensitivity of the strain; format: cell-based; conditions: concentration of 50 μg ml^−1
[6] = reportedly; cited from earlier work
fibrin = conditions: prior art; cited from earlier work
[7] = Pharmacological properties of thrombolytic agents in acute myocardial infarctions; conditions: for Efficacy (<4 h): acute myocardial infarctions
[8] = cited from earlier work
[9] = in vivo
[10] = Table III, available enzymes; cited from earlier work
[11] = inhibitor 1 mM, purified enzyme, universal protease substrate, 55° C.

Molecule	effect of inhibitor on fibrinolytic activity of the enzyme ([2]; crude enzyme, FIG. 5)	effect of inhibitor on enzymatic activity (actinokinase; [11])	also measured
N=C(N)NCCC[C@H](NC(=O)CNC(=O)CCNC(=O)c1ccccc1)C(=O)Nc1ccc([N+](=O)[O-])cc1 [chromozyme U, Benzoyl-β-ala-gly-arg-4-ρNA] (HELM PEPTIDE1{[O=C(c1ccccc1)[*:2]].[bAla].G.R.[O=[N+]([O-])c1ccc(N[*:1])cc1]}$$$$V2.0)	–	–	Km [1]: 2.2 µM
O=C(O)CN(CCN(CC(=O)O)CC(=O)O)CC(=O)O [EDTA]	–	–	effect of inhibitor on fibrinolytic activity of the enzyme [2]: inhibitory effect; effect of inhibitor on fibrinolytic activity [3]: inhibitory effect; effect of inhibitor on enzymatic activity (actinokinase): inhibitory effect; effect of inhibitor on enzymatic activity [4]: inhibitory effect
CC(C)C[C@H](NP(=O)(O)O[C@@H]1O[C@@H](C)[C@H](O)[C@@H](O)[C@H]1O)C(=O)N[C@@H](Cc1c[nH]c2ccccc12)C(=O)O [Phosphoramidon]	No change	No change in activity	–
CCC[C@@H]1C[C@@H](C(=O)N[C@@H]([C@H]2O[C@H](SC)[C@H](O)[C@@H](O)[C@H]2O)[C@@H](C)O)N(C)C1 [lincomycin]	–	–	inhibition of the microorganism [5]: inhibited
CC(C)C[C@H](NP(=O)(O)O[C@@H]1O[C@@H](C)[C@H](O)[C@@H](O)[C@H]1O)C(=O)N[C@@H](Cc1c[nH]c2ccccc12)C(=O)O [phosphoramidin]	–	–	effect of inhibitor on fibrinolytic activity [3]: No change in the activity
O=S(=O)(F)Cc1ccccc1 [PMSF]	strongly repressed	highly repressed	–
Streptokinase: prior art plasminogen activator	–	–	failure rate as thrombolytic agent [6]: ≤ 25%; affinity for fibrin (fibrin): do not show any affinity; Efficacy (<4 h) [7]: 65; Adverse effects ([7]; in vivo): Haemorragic; Half life ([7]; in vivo): 23 min
Cl.NCCc1ccc(S(=O)(=O)F)cc1 [Pefabloc, pefabloc]	strongly repressed	highly repressed	–
C=C(NC(=O)C(=C)NC(=O)c1csc(C2=N[C@@H]3c4csc(n4)[C@H]4NC(=O)c5csc(n5)[C@H]([C@](C)(O)[C@@H](C)O)NC(=O)[C@H]5CSC(=N5)/C(=C/C)NC(=O)[C@H]([C@@H](C)O)NC(=O)c5csc(n5)[C@]3(CC2)NC(=O)[C@H](C)NC(=O)C(=C)NC(=O)[C@H](C)NC(=O)[C@H]([C@@H](C)CC)N[C@@H]2C=Cc3c([C@H](C)O)cc(nc3[C@H]2O)C(=O)O[C@@H]4C)n1)C(N)=O [thiostrepton]	–	–	inhibition of the microorganism [5]: inhibited
T-PA: tissue plasmiogen activators	–	–	Efficacy (<4 h) ([8]; acute myocardial infarctions, data from the literature): 70; Half life ([8]; in vivo): 5 min
OCCS [β-mercaptoethanol]	–	Insignificant inhibition	–
CC(=O)N[C@@H](CC(C)C)C(=O)N[C@@H](CC(C)C)C(=O)N[C@H](C=O)CCCNC(=N)N [Leupeptin]	moderately sensitive	moderately sensitive	–
c1cnc2c(c1)ccc1cccnc12 [1,10 phenanthroline]	No change	No change in activity	effect of inhibitor on fibrinolytic activity [3]: No change in the activity
Urokinase	–	–	Half life [9]: 16 min; Optimum Temperature [10]: 37 °C; Optimum pH [10]: 7.5; affinity for fibrin (fibrin): do not show any affinity; Efficacy (<4 h) [7]: 65
Cc1ccc(S(=O)(=O)N[C@@H](Cc2ccccc2)C(=O)CCl)cc1 [TPCK]	moderately sensitive	moderately sensitive	–
CC(C)C[C@H](NC(=O)[C@H]1O[C@@H]1C(=O)O)C(=O)NCCCCN=C(N)N [E-64]	–	Insignificant inhibition	–
CC(C)C[C@H](NC(=O)[C@@H](NC(=O)N[C@@H](Cc1ccccc1)C(=O)O)[C@@H]1CCN=C(N)N1)C(=O)N[C@H](C=O)Cc1ccccc1 [Chymostatin]	strongly repressed	highly repressed	–
CC(C)CC(=O)N[C@H](C(=O)N[C@H](C(=O)N[C@@H](CC(C)C)[C@@H](O)CC(=O)N[C@@H](C)C(=O)N[C@@H](CC(C)C)[C@@H](O)CC(=O)O)C(C)C)C(C)C [Pepstatin] (Isovaleryl-VV[Sta]A[Sta]-OH)	–	Insignificant inhibition	–
Aprotinin	strongly repressed	highly repressed	–
CC(C)C[C@H](NC(=O)[C@@H](O)[C@H](N)Cc1ccccc1)C(=O)O [Bestatin]	strongly repressed	highly repressed	–
